According to patent US11040981B2, “Pyrrolotriazine compounds and methods of inhibiting TAM kinases” (Syros Pharmaceuticals, Inc., priority 2017, dated 2021):

Tests used:
MERTK = biological target: T1, MERTK (Homo sapiens, UniProt Q12866); assay: TR-FRET kinase activity assay, MERTK; assay type: biochemical; details: for IC50: TR-FRET activity assay, ATP at Km, 60 minutes, read-out: Mer IC50; for FLT3/Mer ratio (FLT3 IC50/Mer IC50): ratio of Mer to FLT3: FLT3 IC50/Mer IC50
T1 sequence (Q12866 21-999): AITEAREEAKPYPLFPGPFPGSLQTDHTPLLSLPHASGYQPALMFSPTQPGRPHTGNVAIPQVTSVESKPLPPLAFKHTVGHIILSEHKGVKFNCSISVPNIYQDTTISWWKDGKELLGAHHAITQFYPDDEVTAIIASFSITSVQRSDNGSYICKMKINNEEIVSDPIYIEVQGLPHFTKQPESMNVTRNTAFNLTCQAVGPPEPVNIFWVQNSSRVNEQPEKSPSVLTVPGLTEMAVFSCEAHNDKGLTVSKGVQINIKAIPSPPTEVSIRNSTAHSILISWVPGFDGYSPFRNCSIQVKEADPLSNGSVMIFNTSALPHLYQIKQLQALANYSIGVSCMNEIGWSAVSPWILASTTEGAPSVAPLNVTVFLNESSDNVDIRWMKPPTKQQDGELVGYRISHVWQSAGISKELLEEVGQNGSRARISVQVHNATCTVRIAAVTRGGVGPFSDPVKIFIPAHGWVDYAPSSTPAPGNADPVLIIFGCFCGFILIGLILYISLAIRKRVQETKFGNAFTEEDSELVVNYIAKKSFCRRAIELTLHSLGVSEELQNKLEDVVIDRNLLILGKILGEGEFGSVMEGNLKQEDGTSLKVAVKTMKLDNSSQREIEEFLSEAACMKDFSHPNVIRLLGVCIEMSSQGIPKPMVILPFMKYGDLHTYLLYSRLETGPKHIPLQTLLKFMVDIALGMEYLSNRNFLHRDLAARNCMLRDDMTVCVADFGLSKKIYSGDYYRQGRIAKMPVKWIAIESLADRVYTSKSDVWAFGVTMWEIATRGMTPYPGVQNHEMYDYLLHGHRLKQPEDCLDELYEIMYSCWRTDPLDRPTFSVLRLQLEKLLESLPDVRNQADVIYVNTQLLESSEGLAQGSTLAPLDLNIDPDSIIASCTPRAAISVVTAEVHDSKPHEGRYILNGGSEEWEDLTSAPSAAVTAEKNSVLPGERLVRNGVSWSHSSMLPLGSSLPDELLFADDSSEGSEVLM
Outline: (§1)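 Enzyme + labelled peptide + cpd premixed; ATP at per-enzyme Km starts rxn. 60 min RT, HEPES pH 7.5/MgCl2/EGTA/Brij 35/DTT buffer. Stop 12.5 mM EDTA, Eu phospho-Ab 30 min dark, TR-FRET read → IC50.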

AXL = biological target: T2, AXL (Homo sapiens, UniProt P30530); assay: TR-FRET kinase activity assay, AXL; assay type: biochemical; details: ATP at Km, 60 minutes
T2 sequence (P30530 26-894): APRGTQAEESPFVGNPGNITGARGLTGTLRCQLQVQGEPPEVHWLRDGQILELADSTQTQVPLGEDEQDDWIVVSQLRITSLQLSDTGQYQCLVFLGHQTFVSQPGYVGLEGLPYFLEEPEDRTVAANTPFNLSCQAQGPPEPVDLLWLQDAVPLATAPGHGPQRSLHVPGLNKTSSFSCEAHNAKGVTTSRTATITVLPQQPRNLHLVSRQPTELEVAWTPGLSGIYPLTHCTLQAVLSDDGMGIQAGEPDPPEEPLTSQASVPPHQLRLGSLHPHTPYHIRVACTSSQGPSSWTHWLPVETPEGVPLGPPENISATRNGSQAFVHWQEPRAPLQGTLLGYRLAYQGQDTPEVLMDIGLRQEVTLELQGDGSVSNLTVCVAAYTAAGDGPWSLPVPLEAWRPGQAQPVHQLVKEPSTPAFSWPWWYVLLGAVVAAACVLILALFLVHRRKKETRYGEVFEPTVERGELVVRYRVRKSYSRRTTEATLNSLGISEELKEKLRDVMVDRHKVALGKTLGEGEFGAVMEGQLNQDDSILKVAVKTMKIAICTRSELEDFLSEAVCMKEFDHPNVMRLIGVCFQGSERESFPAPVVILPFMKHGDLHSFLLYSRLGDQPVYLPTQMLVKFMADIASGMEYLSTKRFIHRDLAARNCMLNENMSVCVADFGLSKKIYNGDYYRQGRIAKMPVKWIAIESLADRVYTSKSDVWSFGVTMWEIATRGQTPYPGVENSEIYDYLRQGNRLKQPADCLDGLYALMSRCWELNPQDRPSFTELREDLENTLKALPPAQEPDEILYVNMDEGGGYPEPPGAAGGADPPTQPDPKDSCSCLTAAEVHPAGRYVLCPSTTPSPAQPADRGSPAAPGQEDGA
Outline: as §1

| Compound | IC50 (MERTK) | FLT3/Mer ratio (FLT3 IC50/Mer IC50) (MERTK) | IC50 (AXL) |
| --- | --- | --- | --- |
| COC[C@H](C)Nc1ncc2c(-c3cnn(CC4(C#N)CC4)c3)cc([C@H]3CC[C@H](O)CC3)n2n1 [Compound 266] | ≤ 0.1 µM | +++ (“+++” represents a ratio of >100) | ≤ 0.1 µM |
| COC[C@H](C)Nc1ncc2c(-c3cnnc(C)c3)cc([C@H]3CC[C@H](O)CC3)n2n1 [Compound 267] | ≤ 0.1 µM | +++ (“+++” represents a ratio of >100) | 0.1 to 1 µM |
| Cc1cc(-c2cc([C@H]3CC[C@H](O)CC3)n3nc(N[C@@H](C)CC(F)(F)F)ncc23)cnn1 [Compound 268] | ≤ 0.1 µM | +++ (“+++” represents a ratio of >100) | 0.1 to 1 µM |
| C[C@@H](CC(F)(F)F)Nc1ncc2c(-c3cnn(C4COC4)c3)cc([C@H]3CC[C@H](O)CC3)n2n1 [Compound 269] | ≤ 0.1 µM | ++ (“++” represents a ratio of between 10 and 100) | ≤ 0.1 µM |
| C[C@@H](COC(F)F)Nc1ncc2c(-c3cnn(C4COC4)c3)cc([C@H]3CC[C@H](O)CC3)n2n1 [Compound 270] | ≤ 0.1 µM | +++ (“+++” represents a ratio of >100) | ≤ 0.1 µM |
| COC[C@H](C)Nc1ncc2c(-c3ccc(N4CCN(C)CC4)nc3)cc([C@H]3CC[C@H](O)CC3)n2n1 [Compound 271] | ≤ 0.1 µM | ++ (“++” represents a ratio of between 10 and 100) | ≤ 0.1 µM |
